The subject of this assay is HCV. Nature of the assay: Cell-based HCV infection NS3 protease FRET assay in DMSO-Huh7 cells. Also: test concentration or dose not given here. Also noted: species or system hepatitis C virus (HCV).
[1] abbreviates: DMSO-Huh7 cells infected with HCV at 0.05 ffu/cell, HCV NS3 protein levels by FRET, day 6 p.i.

Like-named read-outs stand apart in the source and are kept apart here.

Turning to `CCCCCCCCCN1C[C@@H](O)[C@@H](O)[C@H](O)[C@H](O)C1` [Compound 794, (3R,4R,5R,6R)-1-nonylazepane-3,4,5,6-tetraol], the Ave % inhibition entry under setting [1] was “++++ (++++: 60-79%)”.
Consider `OC[C@H]1[C@H](O)[C@@H](O)CN1Cc1ccccc1` [Compound 500, (2S,3S,4S)-1-benzyl-2-(hydroxymethyl)pyrrolidine-3,4-diol], for which, under setting [1], the Ave % inhibition result was “++ (++: 20-39%)”.
Same read-out and setting: then `CCCCN1C[C@H](O)[C@@H](O)[C@H](O)[C@H]1CO` [Compound 118, (2R,3R,4R,5S)-1-butyl-2-(hydroxymethyl)piperidine-3,4,5-triol], with “++ (++: 20-39%)”.
The same measure, in the same setting: then `OC[C@@H]1[C@@H](O)[C@H](O)[C@@H](CO)N1Cc1ccc(-c2ccccc2)cc1` [Compound 558, (2R,3R,4R,5R)-1-(biphenyl-4-ylmethyl)-2,5-bis(hydroxymethyl)pyrrolidine-3,4-diol], with “+++ (+++: 40-59%)”.
For the molecule `O=C(O)CN1C[C@H](O)[C@H](O)[C@@H]1[C@@H](O)[C@H](O)[C@H](O)CO` [Compound 530, 2-((2R,3R,4S)-3,4-dihydroxy-2-((1R,2S,3R)-1,2,3,4-tetrahydroxybutyl)pyrrolidin-1-yl)acetic acid], under setting [1], the Ave % inhibition entry is recorded as “++ (++: 20-39%)”.
Same read-out and setting: then `O=C(O)CCCN1C[C@@H](O)[C@H](O)[C@H]1CO` [Compound 499, 4-[(2R,3R,4R)-3,4-dihydroxy-2-(hydroxymethyl)pyrrolidin-1-yl]butanoic acid], with “++ (++: 20-39%)”.
Still for that read-out and setting: then `CC[C@@H]1NC[C@@H](O)[C@H](O)[C@H]1O` [Compound 72, (2S,3S,4S,5R)-2-ethylpiperidine-3,4,5-triol], with “++ (++: 20-39%)”.
Still for that read-out and setting: with “(3R,5S)-5-(acetamidomethyl)-1-butylpyrrolidin-3-yl acetate [Compound 546]” the entry was “++ (++: 20-39%)”; with `CC1(C)O[C@H]2[C@H](CN(Cc3ccc(-c4ccccc4)cc3)[C@H]2CNC(=O)C(F)(F)F)O1` [Compound 632, N-(((3aR,4S,6aS)-5-(biphenyl-4-ylmethyl)-2,2-dimethyltetrahydro-3aH-[1,3]dioxolo[4,5-c]pyrrol-4-yl)methyl)-2,2,2-trifluoroacetamide], “++ (++: 20-39%)”.
`CCCC(=O)NC[C@@H]1[C@@H](O)[C@@H](O)CN1Cc1ccccc1` [Compound 669, N-(((2R,3R,4S)-1-benzyl-3,4-dihydroxypyrrolidin-2-yl)methyl)butyramide]: the Ave % inhibition entry under setting [1] is “++ (++: 20-39%)”.
Still for that read-out and setting: with `CCCCCCCCCN1C[C@H](NC(C)=O)[C@@H](O)[C@@H]1CO` [Compound 338, N-((3S,4R,5S)-4-hydroxy-5-(hydroxymethyl)-1-nonylpyrrolidin-3-yl)acetamide] the entry was “++ (++: 20-39%)”.
For `OC[C@@H](O)[C@@H]1NC[C@H](O)[C@@H]1O` [Compound 155, (2S,3R,4S)-2-((S)-1,2-dihydroxyethyl)pyrrolidine-3,4-diol], the Ave % inhibition entry was “++ (++: 20-39%)”.
`CCCCCCCCCN1C[C@@H](O)[C@H](O)[C@@H](NC(C)=O)C1` [Compound 780, N-((3S,4R,5R)-4,5-dihydroxy-1-nonylpiperidin-3-yl)acetamide]: the Ave % inhibition result under setting [1] is recorded as “++ (++: 20-39%)”.
Consider `C[C@H]1C[C@@H](O)[C@@H]2[C@H](O)[C@H](O)[C@@H](CO)N21` [Compound 149, (1S,2R,3R,5S,7R,7aR)-3-(hydroxymethyl)-5-methylhexahydro-1H-pyrrolizine-1,2,7-triol], for which the Ave % inhibition entry is “++ (++: 20-39%)”.
With `[N-]=[N+]=NC[C@H]1[C@@H](O)[C@@H](O)CN1Cc1ccccc1` [Compound 506, (2S,3R,4S)-2-(azidomethyl)-1-benzylpyrrolidine-3,4-diol], under setting [1], the Ave % inhibition result is listed as “+++ (+++: 40-59%)”.
Still for that read-out and setting: then `CC(=O)NC[C@H]1[C@@H](O)[C@@H](O)CN1CCN1CCCCC1` [Compound 616, N-(((2S,3R,4S)-3,4-dihydroxy-1-(2-(piperidin-1-yl)ethyl)pyrrolidin-2-yl)methyl)acetamide], with “++ (++: 20-39%)”; and `CN(C)CCN1C[C@H](O)[C@H](O)[C@@H]1CNC(=O)c1ccccc1` [Compound 667, N-(((2S,3R,4S)-1-(2-(dimethylamino)ethyl)-3,4-dihydroxypyrrolidin-2-yl)methyl)benzamide], with “++ (++: 20-39%)”; and `CCCCCCCCCN1C[C@@H]2OC(C)(C)O[C@@H]2[C@@H]1CNC(C)=O` [Compound 630, N-(((3aR,4S,6aS)-2,2-dimethyl-5-nonyltetrahydro-3aH-[1,3]dioxolo[4,5-c]pyrrol-4-yl)methyl)acetamide], with “++ (++: 20-39%)”.
With `O=C(NC[C@H]1[C@@H](O)[C@@H](O)CN1CCCCCCCCCO)c1ccc(-c2ccccc2)cc1` [Compound 660, N-(((2S,3R,4S)-3,4-dihydroxy-1-(9-hydroxynonyl)pyrrolidin-2-yl)methyl)biphenyl-4-carboxamide], the Ave % inhibition result under setting [1] is “+++ (+++: 40-59%)”.
With `O=C(O)[C@H]1C[C@H](O)CN1` [Compound 477, trans-4-Hydroxy-D-proline], the Ave % inhibition entry is listed as “+ (+: ≦19%)”.
Consider `O[C@@H]1[C@@H]2[C@@H](O)CCCN2C[C@@H]1O` [Compound 153, (1R,2S,8S,8aS)-octahydroindolizine-1,2,8-triol], for which, under setting [1], the Ave % inhibition result is listed as “++ (++: 20-39%)”.
The same measure, in the same setting: then `CCCC(=O)O[C@H]1CN2CC[C@H](O)C2[C@@H](O)[C@@H]1O` (stereo partly drawn) [Compound 46, (1S,6S,7S,8R)-1,7,8-trihydroxyoctahydroindolizin-6-yl butyrate], with “++ (++: 20-39%)”; and `CCCCCCCCCN1C[C@@H](O)[C@@H](O)[C@@H]1[C@@H](O)CO` [Compound 316, (2S,3S,4R)-2-((R)-1,2-dihydroxyethyl)-1-nonylpyrrolidine-3,4-diol], with “+++ (+++: 40-59%)”.
Still for that read-out and setting: with `CCCCCCCCCN1C[C@@H](NC(C)=O)C[C@H]1CO` [Compound 348, N-((3S,5S)-5-(hydroxymethyl)-1-nonylpyrrolidin-3-yl)acetamide] the entry was “++++ (++++: 60-79%)”.
Same read-out and setting: with `C[C@H](N)CCC[C@@H]1N[C@@H](CO)[C@H](O)[C@H]1O` [Compound 562, (2S,3S,4S,5S)-2-((S)-4-aminopentyl)-5-(hydroxymethyl)pyrrolidine-3,4-diol] the entry was “++++ (++++: 60-79%)”; with `O=C(NC[C@@H]1[C@@H](O)[C@@H](O)CN1Cc1ccc(-c2ccccc2)cc1)c1ccccc1` [Compound 649, N-(((2R,3R,4S)-1-(biphenyl-4-ylmethyl)-3,4-dihydroxypyrrolidin-2-yl)methyl)benzamide], “+++ (+++: 40-59%)”; with `O=C(NC[C@@H]1NC[C@H](O)[C@@H]1O)c1ccc(-c2ccccc2)cc1` [Compound 670, N-(((2S,3R,4S)-3,4-dihydroxypyrrolidin-2-yl)methyl)biphenyl-4-carboxamide], “+++++ (+++++: ≧80%)”.
In the case of `CC(=O)OC[C@H]1[C@@H](OC(C)=O)[C@H](OC(C)=O)[C@H]2[C@@H](OC(C)=O)[C@@H](OC(C)=O)CN21` [Compound 144, (1R,2R,3S,6S,7R,7aR)-3-(acetoxymethyl)hexahydro-1H-pyrrolizine-1,2,6,7-tetrayl tetraacetate], the Ave % inhibition entry under setting [1] is “++ (++: 20-39%)”.
Same read-out and setting: then `CCCCCCCCCN1C[C@@H](O)[C@@H](O)[C@H](NC(C)=O)C1` [Compound 731, N-((3R,4S,5R)-4,5-dihydroxy-1-nonylpiperidin-3-yl)acetamide], with “++ (++: 20-39%)”; and `CCCCCCCCCN1C[C@@H](O)C(NC(C)=O)[C@H](O)C1` [Compound 783, N-((3R,5R)-3,5-dihydroxy-1-nonylpiperidin-4-yl)acetamide], with “+++ (+++: 40-59%)”; and `CCCCCCCCCN1C[C@@H](O)[C@@H](O)[C@@H]1[C@H](O)CO` [Compound 427, (2S,3S,4R)-2-((S)-1,2-dihydroxyethyl)-1-nonylpyrrolidine-3,4-diol], with “+++ (+++: 40-59%)”.
Same read-out and setting: with `[N-]=[N+]=N[C@@H]1CN(CCO)[C@H](CO)[C@H]1O` [Compound 721, (2R,3R,4R)-4-azido-1-(2-hydroxyethyl)-2-(hydroxymethyl)pyrrolidin-3-ol] the entry was “++ (++: 20-39%)”.
On the same count and under the same terms, then `COC(=O)[C@H]1C[C@H](O)CN1C(=O)OC(C)(C)C` [Compound 713, (2R,4S)-1-tert-butyl 2-methyl 4-hydroxypyrrolidine-1,2-dicarboxylate], with “++ (++: 20-39%)”; and `C[C@@H](N)CCC[C@@H]1N[C@@H](CO)[C@H](O)[C@H]1O` [Compound 561, (2S,3S,4S,5S)-2-((R)-4-aminopentyl)-5-(hydroxymethyl)pyrrolidine-3,4-diol], with “++++ (++++: 60-79%)”; and `O=C(NC[C@H]1[C@@H](O)[C@@H](O)CN1CCN1CCOCC1)c1ccc(-c2ccccc2)cc1` [Compound 702, N-(((2S,3R,4S)-3,4-dihydroxy-1-(2-morpholinoethyl)pyrrolidin-2-yl)methyl)biphenyl-4-carboxamide], with “++++ (++++: 60-79%)”.
In the case of “((2S,4S)-4-acetamido-1-nonylpyrrolidin-2-yl)methyl acetate [Compound 332]”, the Ave % inhibition result under setting [1] is on record as “+++++ (+++++: ≧80%)”.
Still for that read-out and setting: with `O=C(NC[C@@H]1[C@@H](O)[C@@H](O)CN1Cc1ccccc1)c1ccc(-c2ccccc2)cc1` [Compound 673, N-(((2R,3R,4S)-1-benzyl-3,4-dihydroxypyrrolidin-2-yl)methyl)biphenyl-4-carboxamide] the entry was “++ (++: 20-39%)”.
Consider `CC(=O)OC[C@H]1[C@@H](OC(C)=O)[C@H](OC(C)=O)[C@H]2[C@H](OC(C)=O)[C@@H](OC(C)=O)CN21` [Compound 136, (1R,2R,3S,6S,7S,7aR)-3-(acetoxymethyl)hexahydro-1H-pyrrolizine-1,2,6,7-tetrayl tetraacetate], for which the Ave % inhibition result under setting [1] is recorded as “++ (++: 20-39%)”.
On the same count and under the same terms, with `CCCCN1C[C@@H]2OC(C)(C)O[C@@H]2[C@@H]1CNC(=O)C(F)(F)F` [Compound 676, N-(((3aR,4S,6aS)-5-butyl-2,2-dimethyltetrahydro-3aH-[1,3]dioxolo[4,5-c]pyrrol-4-yl)methyl)-2,2,2-trifluoroacetamide] the entry was “++ (++: 20-39%)”.

These data come from patent US20110195929A1, “COMPOUNDS FOR THE TREATMENT OF FLAVIVIRAL INFECTIONS” (SUMMIT CORPORATION PLC, priority 2008, published 2011).
